Data published in article PMC4436593, “Endoplasmic reticulum stress-independent activation of unfolded protein response kinases by a small molecule ATP-mimic” (eLife, 2015).
Values joined by “and” are separate entries in the source; they are usually repeats but may differ in a detail not shown here. Identical values can stand only once.

Columns and labels:
[1] = system: HEK293T cells; experiment: HEK293T cell viability (CellTiter-Blue, 24 hr); type: cell-based; settings: 24 hr
Protocol: HEK293T cells were grown in DMEM (Sigma) complete media containing 10% FBS, 10 units/ml penicillin (Invitrogen), and 10 μg/ml streptomycin (Invitrogen). Cells were plated at a density of 30,000 cells per well in 96-well black plates with clear flat bottoms (Corning, Sigma-Aldrich) 24 hr before the experiment. A 12-point semi-logarithmic dilution series of compounds was made starting at 30 μM not to exceed 0.1% DMSO after final dilution into the growth media. Viability assays were conducted over the course of 24 hr. Cell viability was determined using CellTiter-Blue (Promega) following the manufacturer's instructions. […] Experiments were done in triplicate, and mean values were computed for each data point.

[2] = biological target: IRE1α-KR43 (Homo sapiens, UniProt O75460); experiment: FRET-based RNA cleavage assay (fluorescent HP17 substrate) of IRE1α-KR43 RNase activity
Chain of IRE1α-KR43 (O75460 465-977 limits assumed): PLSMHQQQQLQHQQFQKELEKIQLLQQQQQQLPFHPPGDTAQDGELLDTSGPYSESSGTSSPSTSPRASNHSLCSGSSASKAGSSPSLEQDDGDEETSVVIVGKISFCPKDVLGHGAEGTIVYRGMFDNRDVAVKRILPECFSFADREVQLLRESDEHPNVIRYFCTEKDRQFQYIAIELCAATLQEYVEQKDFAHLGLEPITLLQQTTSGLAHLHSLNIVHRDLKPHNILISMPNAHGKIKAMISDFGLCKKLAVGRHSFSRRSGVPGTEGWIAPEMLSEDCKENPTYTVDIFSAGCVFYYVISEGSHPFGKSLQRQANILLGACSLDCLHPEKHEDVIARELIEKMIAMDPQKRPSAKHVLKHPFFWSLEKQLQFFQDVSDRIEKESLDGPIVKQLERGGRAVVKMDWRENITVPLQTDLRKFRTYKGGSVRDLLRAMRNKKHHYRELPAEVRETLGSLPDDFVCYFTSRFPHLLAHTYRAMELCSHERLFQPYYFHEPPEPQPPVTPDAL

CSc1ccc(NC(=O)Nc2ccc(Nc3nccc(Nc4cc(C5CC5)[nH]n4)n3)cc2)cc1 [IPA]
LD50 cell viability in the presence of 1 μM GSK ([1]; IPA + 1 μM GSK2606414): 6.21 µM and 6.2 µM | LD50 cell viability ([1]; IPA alone): 0.82 µM and 0.8 µM | EC50 [2]: 360 nM
